In brackets after ≈: the same amount, converted by molar mass.
Experiments:
Gonococcus (10) = assay: In vitro pharmacodynamics, clinical isolates, two-fold plate dilution; assay type: cell-based; conditions: 10 clinical isolates of Gonococcus
[1] = test system: urea plasma urealyticum (Uu); assay: In vitro anti-urea plasma urealyticum MIC in U-PPLO; assay type: cell-based
Method: 1. Test method: add U-PPLO 0.8 ml in sterile 12-pore cell culture plate (add 0.9 ml in bacteria liquid control pore and 1.0 ml in culture medium control pores).
3. Divide into 3 groups (100 μg/ml, 10 μg/ml and 1 μg/ml antibiotic stocksolution), Add experimental antibiotics (levocarrimycin in example 6 of the present invention, acetyl spiramycin, erythrocin and azithromycin) in each experimental pores with sterile Tip according to double degradation concentration gradient: 100 μl, 50 μl, 25 μl and 12.5 μl.
4. Blend the above pores evenly, seal the culture plate with an adhesive tape and then culture in 37° C. incubator.
5. Abserve and record the growth of Uu on 17-24 h after the test.

[2] = test system: Streptococcus pyogenes119; assay: MIC against the infecting test organism (Table 3); assay type: cell-based, Streptococcus pyogenes
[3] = test system: Streptococcus pyogenes102; assay: MIC against the infecting test organism (Table 3); assay type: cell-based, Streptococcus pyogenes
[4] = test system: Streptococcus pneumonia57; assay: MIC against the infecting test organism (Table 3); assay type: cell-based, Streptococcus pneumonia
Staphylococcus aureus76 = assay: MIC against the infecting test organism (Table 4); assay type: cell-based, Staphylococcus aureus
Enterococcus32 = assay: MIC against the infecting test organism (Table 4); assay type: cell-based, Enterococcus
[5] = test system: chlamydia trachomatis serotype B/TW-5/OT; assay: In vitro anti-chlamydia MIC, McCoy cells, immunofluorescent staining of inclusions; assay type: cell-based; conditions: Chlamydia trachomatis B/TW-5/OT in McCoy cells, 48 h
[6] = test system: Streptococcus pyogenes772; assay: MIC against the infecting test organism (Table 3); assay type: cell-based, Streptococcus pyogenes
[7] = test system: chlamydia pneumoniae CWL-029; assay: In vitro anti-chlamydia MIC, HEp-2 cells, immunofluorescent staining of inclusions; assay type: cell-based; conditions: Chlamydia pneumoniae CWL-029 in HEp-2 cells, 72 h
Streptococcus pneumonia3 = assay: MIC against the infecting test organism (Table 3); assay type: cell-based, Streptococcus pneumonia
[8] = test system: chlamydia trachomatis serotype D/UW-3/Cx; assay: In vitro anti-chlamydia MIC, McCoy cells, immunofluorescent staining of inclusions; assay type: cell-based; conditions: Chlamydia trachomatis D/UW-3/Cx in McCoy cells, 48 h
Staphylococcus aureus16 [9] = assay: MIC against the infecting test organism (Table 4); assay type: cell-based, Staphylococcus aureus
[10] = test system: Streptococcus pneumonia57; assay: In vivo pharmacodynamic: mice abdominal cavity infected, half protective dose; conditions: 168 h; mice infected with Streptococcus pneumonia57, challenging dose 8.8 × 10^4 CFU/0.5 ml/mouse, intragastric administration, fatality within seven days
Method: (§1) Test method: infectious bacteria liquid preparation: put the bacteria liquid stored in the −80° C. refrigerator into the room for about 1 h at room temperature, and respectively draw 0.1 ml bacteria liquid of streptococcus pneumonia, streptococcus pyogenes and enterococcus into 2 ml MH soup (add 10% inactivated horse serum); inoculate the 2 ml MH soup with 0.1 ml bacteria liquid of staphylococcus aureus according to the above method, place the liquid into 37° C. incubator for 18 h to get the original bacteria liquid, dilute the original bacteria liquid with 5% gastric mucin, take 100% lethal bacteria amount if animal gets infected as infectious bacteria liquid.
(§2) Oral administration is planned for clinical medication of levocarrimycin, thus intragastric administration is selected for levocarrimycin test. After intraperitoneal injection of 0.5 ml lethal bacterial amount to the mice' abdominal cavity, the mice appear following symptom, such as reduced activity, repose, hair became loose, and so on. Clyster with 0.2 ml for every mouse after infection 0.5-6 h, there is no adverse reaction. Observe animal fatality within seven days and calculate the half protective dose (EDO of drugs for infected mice and compare the protective effect of drugs througe Bliss order.

Staphylococcus aureus16 [11] = assay: as above; conditions: 168 h; mice infected with Staphylococcus aureus16, challenging dose 5.2 × 10^3 CFU/0.5 ml/mouse, intragastric administration, fatality within seven days
Method: as §1, §2

Staphylococcus aureus12 = assay: as above; conditions: 168 h; mice infected with Staphylococcus aureus12, challenging dose 4.8 × 10^4 CFU/0.5 ml/mouse, intragastric administration, fatality within seven days
Method: as §1, §2

[12] = test system: Streptococcus pyogenes119; assay: as above; conditions: 168 h; mice infected with Streptococcus pyogenes119, challenging dose 4.9 × 10^4 CFU/0.5 ml/mouse, intragastric administration, fatality within seven days
Method: as §1, §2

Compound	MIC (Gonococcus (10))	anti-Uu function ([1]; verbal comparison of the four antibiotics)	MIC [2]	MIC [3]	MIC [4]	MIC (Staphylococcus aureus76)	MIC (Enterococcus32)	Minimal inhibitory concentration (MIC) [5]	MIC [6]	MIC scope (Gonococcus (10))	Minimal inhibitory concentration (MIC) [7]	MIC (Streptococcus pneumonia3)	Minimal inhibitory concentration (MIC) [8]	MIC of anti-urea plasma urealyticum strains ([1]; final MIC (24 h), determined 4 times, 10^3 CCU/ml)	MIC (Staphylococcus aureus16 [9])	ED50 [10]	ED50 (Staphylococcus aureus16 [11])	ED50 (Staphylococcus aureus12)	ED50 [12]	MIC ([1]; final MIC (24 h), determined 4 times, 10^3 CCU/ml, read-out: MIC of anti-urea plasma urealyticum strains)
CC[C@H]1OC(=O)[C@H](C)[C@@H](O[C@H]2C[C@@](C)(OC)[C@@H](O)[C@H](C)O2)[C@H](C)[C@@H](O[C@@H]2O[C@H](C)C[C@H](N(C)C)[C@H]2O)[C@](C)(O)C[C@@H](C)C(=O)[C@H](C)[C@@H](O)[C@]1(C)O [Erythrocin]	0.12 to 64 µg/mL (≈ 0.164 to 87.2 µM)	the worst																		
Acetyl spiramycin			0.5 µg/mL	0.5 µg/mL	1 µg/mL	1 µg/mL	1 µg/mL	4 µg/mL	0.25 µg/mL	0.12 to 64 µg/mL	0.5 µg/mL	0.5 µg/mL	2 µg/mL	0.5 µg/mL	1 µg/mL					
CC[C@H]1OC(=O)[C@H](C)[C@@H](O[C@H]2C[C@@](C)(OC)[C@@H](O)[C@H](C)O2)[C@H](C)[C@@H](O[C@@H]2O[C@H](C)C[C@H](N(C)C)[C@H]2O)[C@](C)(O)C[C@@H](C)CN(C)[C@H](C)[C@@H](O)[C@]1(C)O [Azithromycin]	0.12 to 64 µg/mL (≈ 0.16 to 85.4 µM)															19.7 mg/kg	75.8 mg/kg	217 mg/kg	99 mg/kg	0.025 to 0.125 µg/mL
